The numbers were not newly measured in US20210346403A1, “USE OF COMPOUNDS THAT TARGET MINERALOCORTICOID RECEPTORS FOR TREATING COVID-19” (priority 2020, published 2021), which cites them from elsewhere.

One data set concerns the target T1, progestin receptor (Homo sapiens, UniProt P06401).
T1 sequence (P06401 1-933): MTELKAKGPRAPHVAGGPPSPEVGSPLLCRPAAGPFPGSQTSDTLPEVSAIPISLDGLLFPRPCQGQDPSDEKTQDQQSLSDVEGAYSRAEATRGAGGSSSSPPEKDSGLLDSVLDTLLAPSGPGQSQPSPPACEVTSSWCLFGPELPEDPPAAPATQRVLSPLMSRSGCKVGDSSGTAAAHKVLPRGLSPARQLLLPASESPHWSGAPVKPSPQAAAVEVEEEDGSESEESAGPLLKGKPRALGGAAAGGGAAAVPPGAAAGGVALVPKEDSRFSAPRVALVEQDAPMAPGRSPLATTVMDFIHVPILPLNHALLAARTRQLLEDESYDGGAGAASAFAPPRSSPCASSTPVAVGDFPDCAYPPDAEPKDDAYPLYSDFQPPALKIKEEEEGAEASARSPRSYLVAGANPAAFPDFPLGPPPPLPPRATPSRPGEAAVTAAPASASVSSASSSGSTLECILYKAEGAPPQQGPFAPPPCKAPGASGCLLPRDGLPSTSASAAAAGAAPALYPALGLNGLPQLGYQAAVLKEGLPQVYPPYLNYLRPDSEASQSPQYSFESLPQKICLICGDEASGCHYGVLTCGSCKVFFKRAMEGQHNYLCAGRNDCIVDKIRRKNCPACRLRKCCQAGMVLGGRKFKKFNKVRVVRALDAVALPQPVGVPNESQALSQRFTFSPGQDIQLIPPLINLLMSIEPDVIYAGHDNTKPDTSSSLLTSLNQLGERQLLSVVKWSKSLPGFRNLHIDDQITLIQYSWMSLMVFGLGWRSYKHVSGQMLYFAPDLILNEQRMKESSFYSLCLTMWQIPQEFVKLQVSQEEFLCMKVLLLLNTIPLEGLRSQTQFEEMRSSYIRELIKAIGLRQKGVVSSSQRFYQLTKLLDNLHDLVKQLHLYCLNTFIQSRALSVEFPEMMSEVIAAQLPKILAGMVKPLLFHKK
The following applies: fold lower affinity; comparator not stated explicitly (spironolactone or MR implied).

Data set [1] deals with T2, mineralocorticoid receptor (MR) (Homo sapiens, UniProt P08235).
T2 sequence (P08235 1-984): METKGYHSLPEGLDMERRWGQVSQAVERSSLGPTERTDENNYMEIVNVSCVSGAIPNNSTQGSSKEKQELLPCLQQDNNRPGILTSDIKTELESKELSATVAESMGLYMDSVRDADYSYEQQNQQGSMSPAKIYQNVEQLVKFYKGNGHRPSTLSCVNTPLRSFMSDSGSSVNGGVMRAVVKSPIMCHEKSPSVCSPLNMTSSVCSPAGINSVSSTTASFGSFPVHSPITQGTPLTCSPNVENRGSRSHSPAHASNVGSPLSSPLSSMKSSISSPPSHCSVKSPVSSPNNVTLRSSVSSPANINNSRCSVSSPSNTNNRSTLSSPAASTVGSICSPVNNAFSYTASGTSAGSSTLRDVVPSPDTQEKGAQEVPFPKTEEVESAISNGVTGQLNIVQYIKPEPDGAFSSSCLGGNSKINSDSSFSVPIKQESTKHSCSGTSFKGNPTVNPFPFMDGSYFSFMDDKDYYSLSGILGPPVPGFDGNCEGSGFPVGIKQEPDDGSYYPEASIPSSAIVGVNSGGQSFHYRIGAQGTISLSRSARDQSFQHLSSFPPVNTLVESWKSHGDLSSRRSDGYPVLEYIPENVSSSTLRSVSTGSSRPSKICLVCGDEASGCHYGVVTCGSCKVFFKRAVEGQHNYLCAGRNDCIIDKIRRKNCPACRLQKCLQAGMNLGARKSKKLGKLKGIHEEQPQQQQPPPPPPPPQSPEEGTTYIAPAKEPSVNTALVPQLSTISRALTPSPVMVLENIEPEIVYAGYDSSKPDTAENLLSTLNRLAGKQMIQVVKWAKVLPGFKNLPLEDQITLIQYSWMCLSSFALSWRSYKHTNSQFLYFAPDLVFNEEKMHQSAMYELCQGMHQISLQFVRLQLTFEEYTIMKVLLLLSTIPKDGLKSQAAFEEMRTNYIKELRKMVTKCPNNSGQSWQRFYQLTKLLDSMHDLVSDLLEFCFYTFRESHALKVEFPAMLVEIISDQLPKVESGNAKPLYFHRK
To be noted: versus other steroid receptors, in words.

The conditions of data set [2]: degraded by aminopeptidase A enzymes on red blood cells.

Turning to `COC(=O)[C@@H]1CC2=CC(=O)CC[C@]2(C)[C@@]23O[C@@H]2C[C@@]2(C)[C@@H](CC[C@@]24CCC(=O)O4)[C@H]13` [Eplerenone, eplerenone], the “lower affinity for the progestin receptor” value at progestin receptor is 500 fold.

For `CC(=O)S[C@@H]1CC2=CC(=O)CC[C@]2(C)[C@H]2CC[C@@]3(C)[C@@H](CC[C@@]34CCC(=O)O4)[C@H]12` [Spironolactone, spironolactone], the “selectivity for the MR” value in data set [1] is listed as “less selective for the MR”.

Broadly, the half-life is the time needed for the level to fall by half in the phase considered. Turning to “angiotensin-2 (DRVYIHPF; Angiotensin-2; UniProt P01019 25-32, looked up) [AngII]”, the half-life in data set [2] was 30 s.
